According to PubChem BioAssay AID330 (DTP/NCI, 2004):
“And” between values parts separate entries of the source, which are not always exact repeats. Equal values may be shown once. Inconclusive results and toxic doses are left out. Rule for the calls: active = survival T/C of 150% or more; inactive = T/C below 125% in these data.

Tested on: P388 leukemia ip, CD2F1 mice, survival T/C
Assay: NCI In Vivo Anticancer Drug Screen. Data for tumor model P388 Leukemia (intraperitoneal) in CD2F1 (CDF1) mice
Conditions: endpoint: median survival time, higher = longer survival
In short: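 Mice carrying the transplanted tumor received test compound or vehicle. Survival was recorded in each group, and the value is the treated-group measurement divided by that of the vehicle-treated control group.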

[1] = dose: 50.0 mg/kg/injection, schedule: Q01DX009 (ip), vehicle: Klucel (hydroxypropylcellulose) (HPC)
[2] = dose: 200.0 mg/kg/injection, schedule: Q01DX009 (ip), vehicle: Klucel (hydroxypropylcellulose) (HPC)
[3] = dose: 12.5 mg/kg/injection, schedule: Q01DX009 (ip), vehicle: saline with Tween-80
[4] = dose: 25.0 mg/kg/injection, schedule: Q01DX009 (ip), vehicle: saline with Tween-80
[5] = dose: 50.0 mg/kg/injection, schedule: Q01DX009 (ip), vehicle: saline with Tween-80
[6] = dose: 100.0 mg/kg/injection, schedule: Q01DX009 (ip), vehicle: saline with Tween-80
[7] = dose: 50.0 mg/kg/injection, schedule: Q01DX005 (ip), vehicle: saline with Tween-80
[8] = dose: 6.25 mg/kg/injection, schedule: Q01DX009 (ip), vehicle: saline with Tween-80
[9] = dose: 100.0 mg/kg/injection, schedule: Q04DX003 (ip), vehicle: Klucel (hydroxypropylcellulose) (HPC)
[10] = dose: 100.0 mg/kg/injection, schedule: Q01DX009 (ip), vehicle: Klucel (hydroxypropylcellulose) (HPC)
[11] = dose: 100.0 mg/kg/injection, schedule: Q01DX005 (ip), vehicle: saline with Tween-80

Measured: T/C

Brc1cc(Br)c2ccccc2c1OCC1CO1 (centres undefined)
inactive: dose: 12.5 mg/kg/injection, schedule: Q01DX009 (ip), vehicle: Klucel (hydroxypropylcellulose) (HPC) 106 % of control and 95 % of control | dose: 25.0 mg/kg/injection, schedule: Q01DX009 (ip), vehicle: Klucel (hydroxypropylcellulose) (HPC) 106 % of control | [1] 88 % of control and 89 % of control and 95 % of control | [2] 91 % of control

O=C(/C=C/c1ccccc1)n1nnc2cc(Cl)c(Cl)cc21
inactive: [3] 92 % of control | [4] 115 % of control | [5] 92 % of control | [6] 99 % of control | dose: 200.0 mg/kg/injection, schedule: Q01DX009 (ip), vehicle: saline with Tween-80 96 % of control

CCOC1=NC2(c3ccccc3)c3ccccc3SC12C (centres undefined)
inactive: dose: 50.0 mg/kg/injection, schedule: Q01DX005 (ip), vehicle: Klucel (hydroxypropylcellulose) (HPC) 98 % of control | dose: 100.0 mg/kg/injection, schedule: Q01DX005 (ip), vehicle: Klucel (hydroxypropylcellulose) (HPC) 100 % of control | dose: 200.0 mg/kg/injection, schedule: Q01DX005 (ip), vehicle: Klucel (hydroxypropylcellulose) (HPC) 93 % of control

CC(C)C12CC3=C(C(=O)C1O2)C1(C)CCC2=C(COC2=O)C1CC3 (centres undefined)
inactive: dose: 3.75 mg/kg/injection, schedule: Q01DX005 (ip), vehicle: DMSO 102 % of control | dose: 7.5 mg/kg/injection, schedule: Q01DX005 (ip), vehicle: DMSO 119 % of control | dose: 15.0 mg/kg/injection, schedule: Q01DX005 (ip), vehicle: DMSO 123 % of control

O=C1C=CC2OC(c3ccccc3)C(O)C2O1 (centres undefined)
inactive: dose: 3.12 mg/kg/injection, schedule: Q01DX005 (ip), vehicle: DMSO 98 % of control | dose: 6.25 mg/kg/injection, schedule: Q01DX005 (ip), vehicle: DMSO 107 % of control | dose: 6.25 mg/kg/injection, schedule: Q01DX005 (ip), vehicle: saline with Tween-80 110 % of control and 118 % of control (2×) | dose: 6.25 mg/kg/injection, schedule: Q01DX009 (ip), vehicle: distilled water + Tween-80 + alcohol 98 % of control | dose: 12.5 mg/kg/injection, schedule: Q01DX005 (ip), vehicle: DMSO 116 % of control | dose: 12.5 mg/kg/injection, schedule: Q01DX005 (ip), vehicle: saline with Tween-80 103 % of control (2×) and 117 % of control | dose: 12.5 mg/kg/injection, schedule: Q01DX009 (ip), vehicle: distilled water + Tween-80 + alcohol 109 % of control | dose: 25.0 mg/kg/injection, schedule: Q01DX005 (ip), vehicle: DMSO 122 % of control | dose: 25.0 mg/kg/injection, schedule: Q01DX005 (ip), vehicle: saline with Tween-80 109 % of control (2×) and 118 % of control | dose: 25.0 mg/kg/injection, schedule: Q01DX009 (ip), vehicle: distilled water + Tween-80 + alcohol 118 % of control | dose: 30.0 mg/kg/injection, schedule: Q01DX009 (ip), vehicle: DMSO 113 % of control | [7] 107 % of control

CC(O)C(=O)N(C)CCCO (centres undefined)
inactive: dose: 50.0 mg/kg/injection, schedule: Q01DX005 (ip), vehicle: saline 92 % of control | dose: 100.0 mg/kg/injection, schedule: Q01DX005 (ip), vehicle: saline 101 % of control | dose: 200.0 mg/kg/injection, schedule: Q01DX005 (ip), vehicle: saline 100 % of control

C=C1C(=O)OC2CC1C(O)C/C(C)=C/CC/C(C)=C/CCC2(C)O (centres undefined)
inactive: dose: 2.0 mg/kg/injection, schedule: Q01DX009 (ip), vehicle: Klucel (hydroxypropylcellulose) (HPC) 110 % of control | dose: 4.0 mg/kg/injection, schedule: Q01DX009 (ip), vehicle: Klucel (hydroxypropylcellulose) (HPC) 110 % of control | dose: 8.0 mg/kg/injection, schedule: Q01DX009 (ip), vehicle: Klucel (hydroxypropylcellulose) (HPC) 122 % of control and 92 % of control | dose: 16.0 mg/kg/injection, schedule: Q01DX009 (ip), vehicle: Klucel (hydroxypropylcellulose) (HPC) 105 % of control and 114 % of control | dose: 32.0 mg/kg/injection, schedule: Q01DX009 (ip), vehicle: Klucel (hydroxypropylcellulose) (HPC) 106 % of control and 107 % of control

CN1/C(=C/C=C/C(I)=C/C=C/C2=[N+](C)c3ccccc3C2(C)C)C(C)(C)c2ccccc21
inactive: dose: 3.13 mg/kg/injection, schedule: Q01DX009 (ip), vehicle: saline with Tween-80 121 % of control | [8] 123 % of control | [3] 120 % of control | [4] 124 % of control

C=C(C)CC1(C)CC(=O)C(C)=C(C)C1=O (centres undefined)
inactive: dose: 25.0 mg/kg/injection, schedule: Q04DX003 (ip), vehicle: Klucel (hydroxypropylcellulose) (HPC) 110 % of control | dose: 50.0 mg/kg/injection, schedule: Q04DX003 (ip), vehicle: Klucel (hydroxypropylcellulose) (HPC) 105 % of control | [9] 100 % of control

COc1cc(O)cc2c1CCC(c1ccccc1)O2 (centres undefined)
inactive: dose: 1.8 mg/kg/injection, schedule: Q01DX005 (ip), vehicle: Klucel + Tween-80 107 % of control | dose: 3.5 mg/kg/injection, schedule: Q01DX005 (ip), vehicle: Klucel + Tween-80 107 % of control | dose: 7.0 mg/kg/injection, schedule: Q01DX005 (ip), vehicle: Klucel + Tween-80 97 % of control | dose: 14.0 mg/kg/injection, schedule: Q01DX005 (ip), vehicle: Klucel + Tween-80 100 % of control

CC(C)C(C#N)(C(=O)O)C(C)C
inactive: [5] 95 % of control | [6] 92 % of control

c1ccc2c3c(ccc2c1)OCCOCCOCCOc1ccc2ccccc2c1-3
inactive: dose: 100.0 mg/kg/injection, schedule: Q01DX001 (ip), vehicle: saline with Tween-80 98 % of control | dose: 200.0 mg/kg/injection, schedule: Q01DX001 (ip), vehicle: saline with Tween-80 92 % of control | dose: 400.0 mg/kg/injection, schedule: Q01DX001 (ip), vehicle: saline with Tween-80 87 % of control

CC1N2CCc3ccccc3C2C2c3ccccc3CCN21 (centres undefined)
inactive: dose: 12.5 mg/kg/injection, schedule: Q01DX001 (ip), vehicle: suspension in saline 111 % of control | dose: 25.0 mg/kg/injection, schedule: Q01DX001 (ip), vehicle: suspension in saline 111 % of control | dose: 50.0 mg/kg/injection, schedule: Q01DX001 (ip), vehicle: suspension in saline 102 % of control and 118 % of control

Cc1ccc(Cl)cc1N=Cc1cccs1
inactive: [1] 97 % of control | [10] 105 % of control | [2] 108 % of control

CC(C)CNC(=O)NCCCCCCNC(=O)NCC(C)C
inactive: dose: 60.0 mg/kg/injection, schedule: Q01DX005 (ip), vehicle: saline with Tween-80 94 % of control | dose: 120.0 mg/kg/injection, schedule: Q01DX005 (ip), vehicle: saline with Tween-80 93 % of control | dose: 240.0 mg/kg/injection, schedule: Q01DX005 (ip), vehicle: saline with Tween-80 93 % of control

C=CN=NNc1ccc(C#N)cc1
inactive: dose: 100.0 mg/kg/injection, schedule: Q04DX003 (ip), vehicle: saline with Tween-80 90 % of control | dose: 200.0 mg/kg/injection, schedule: Q04DX003 (ip), vehicle: saline with Tween-80 106 % of control

O=C(O)CCC/C=N/O
inactive: [9] 98 % of control | dose: 200.0 mg/kg/injection, schedule: Q04DX003 (ip), vehicle: Klucel (hydroxypropylcellulose) (HPC) 99 % of control | dose: 400.0 mg/kg/injection, schedule: Q04DX003 (ip), vehicle: Klucel (hydroxypropylcellulose) (HPC) 102 % of control

C=CC(=O)NCCSSCCNC(=O)C=C
inactive: [8] 108 % of control | [3] 99 % of control | [4] 93 % of control | [6] 98 % of control

CNC(=O)c1cc([N+](=O)[O-])cnc1NC
inactive: [1] 95 % of control | [10] 98 % of control | [2] 92 % of control

Clc1ccnc2ccc3ncccc3c12
inactive: dose: 3.12 mg/kg/injection, schedule: Q04DX002 (ip), vehicle: saline with Tween-80 113 % of control | dose: 6.25 mg/kg/injection, schedule: Q04DX002 (ip), vehicle: saline with Tween-80 103 % of control | dose: 12.5 mg/kg/injection, schedule: Q04DX002 (ip), vehicle: saline with Tween-80 100 % of control

Cc1ncc2c(n1)CCC1=C2OS(=O)(=O)CC1N(C)C (centres undefined)
inactive: [7] 115 % of control | [11] 97 % of control

CC(=O)Nc1ccc(C(=O)C(C)Br)cc1 (centres undefined)
inactive: [8] 106 % of control and 117 % of control and 119 % of control | [3] 116 % of control and 117 % of control and 124 % of control | [4] 108 % of control and 119 % of control and 124 % of control

CC(C)C(NN)C(=O)O (centres undefined)
inactive: [7] 98 % of control | [11] 116 % of control

CN(C)c1ccc(SC(=S)NCc2ccccc2)cc1
inactive: dose: 60.0 mg/kg/injection, schedule: Q01DX005 (ip), vehicle: Klucel (hydroxypropylcellulose) (HPC) 88 % of control | dose: 120.0 mg/kg/injection, schedule: Q01DX005 (ip), vehicle: Klucel (hydroxypropylcellulose) (HPC) 88 % of control
